US20220348558A1, “INHIBITORS OF ENCEPHALITIC ALPHAVIRUSES” (priority 2019, published 2022)

Tests used:
VEEV TC83 = assay: microbe, parasite or virus in culture; assay type: cell-based; details: Venezuelan equine encephalitis virus, Vero 76, 48 h, read-out: VEEV TC83 EC50 nM
WEEV California = assay: microbe, parasite or virus in culture; assay type: cell-based; details: Western equine encephalitis virus, Vero 76, 48 h, read-out: WEEV California EC50 nM

SMILES | EC50 (VEEV TC83) [nM] | EC50 (WEEV California) [nM]
COc1ccc(-n2c([C@@H]3CCCN3C)nc3ccc([N+](=O)[O-])cc3c2=O)cc1 [Example 13, (S)-3-(4-methoxyphenyl)-2-(1-methylpyrrolidin-2-yl)-6-nitroquinazolin-4 (3H)-one] | 1 to 50 | 51 to 150
COc1ccc(-n2c([C@H]3CCCN3)nc3ccc(C#N)cc3c2=O)cc1 [Example 14, (R)-3-(4-methoxyphenyl)-4-oxo-2-(pyrrolidin-2-yl)-3,4-dihydroquinazoline-6-carbonitrile] | 1 to 50 | 51 to 150
COc1ccc(-n2c([C@@H]3CCCN3)nc3ccc(C#N)cc3c2=O)cc1 [Example 15, (S)-3-(4-methoxyphenyl)-4-oxo-2-(pyrrolidin-2-yl)-3,4-dihydroquinazoline-6-carbonitrile] | 51 to 150 | 501 to 1000
COc1ccc(-n2c([C@H]3CCCN3)nc3c(F)c(F)c(F)cc3c2=O)cc1 [Example 16, (R)-6,7,8-trifluoro-3-(4-methoxyphenyl)-2-(pyrrolidin-2-yl)quinazolin-4 (3H)-one] | 501 to 1000 | > 1000
[N-]=[N+]=Nc1cccc(-n2c([C@H]3CCCN3)nc3ccc([N+](=O)[O-])cc3c2=O)c1 [Example 17, (R)-3-(3-azidophenyl)-6-nitro-2-(pyrrolidin-2-yl) quinazolin-4 (3H)-one] | 151 to 500 | > 1000
COc1ccc(-n2c([C@@H]3CCNC3)nc3ccc([N+](=O)[O-])cc3c2=O)cc1 [Example 19, (R)-3-(4-methoxyphenyl)-6-nitro-2-(pyrrolidin-3-yl)quinazolin-4 (3H)-one] | 1 to 50 | 151 to 500
N#Cc1ccc(-n2c([C@H]3CCCN3)nc3ccc([N+](=O)[O-])cc3c2=O)cc1 [Example 20, (R)-4-(6-nitro-4-oxo-2-(pyrrolidin-2-yl)quinazolin-3 (4H)-yl)benzonitrile] | 1 to 50 | 51 to 150
N#Cc1cccc(-n2c([C@H]3CCCN3)nc3ccc([N+](=O)[O-])cc3c2=O)c1 [Example 21, (R)-3-(6-nitro-4-oxo-2-(pyrrolidin-2-yl)quinazolin-3 (4H)-yl)benzonitrile] | > 1000 | > 1000
N#Cc1ccccc1-n1c([C@H]2CCCN2)nc2ccc([N+](=O)[O-])cc2c1=O [Example 22, (R)-2-(6-nitro-4-oxo-2-(pyrrolidin-2-yl)quinazolin-3 (4H)-yl)benzonitrile] | > 1000 | > 1000
O=c1c2cc([N+](=O)[O-])ccc2nc([C@H]2CCCN2)n1-c1ccc(Cl)cc1 [Example 23, (R)-3-(4-chlorophenyl)-6-nitro-2-(pyrrolidin-2-yl) quinazolin-4 (3H)-one] | 1 to 50 | 1 to 50
COc1ccc(-n2c([C@H]3CCCN3)nc3ccc([N+](=O)[O-])cc3c2=O)cc1F [Example 24, (R)-3-(3-fluoro-4-methoxyphenyl)-6-nitro-2-(pyrrolidin-2-yl) quinazolin-4 (3H)-one] | 1 to 50 | 1 to 50
COc1ccc(-n2c([C@H]3CCCN3)nc3ccc([N+](=O)[O-])cc3c2=O)c(F)c1 [Example 25, (R)-3-(2-fluoro-4-methoxyphenyl)-6-nitro-2-(pyrrolidin-2-yl) quinazolin-4 (3H)-one] | 51 to 150 | 151 to 500
COc1cc(F)ccc1-n1c([C@H]2CCCN2)nc2ccc([N+](=O)[O-])cc2c1=O [Example 26, (R)-3-(2-methoxy-4-fluorophenyl)-6-nitro-2-(pyrrolidin-2-yl) quinazolin-4 (3H)-one] | > 1000 | > 1000
O=c1c2cc([N+](=O)[O-])ccc2nc(C2CCN2)n1-c1ccccc1 (centres unmarked) [Example 27, 2-(azetidin-2-yl)-6-nitro-3-phenylquinazolin-4 (3H)-one] | 501 to 1000 | > 1000
COc1ccc(-n2c([C@H]3CCCN3)nc3ccc(F)c(F)c3c2=O)cc1 [Example 28, (R)-5,6-difluoro-3-(4-methoxyphenyl)-2-(pyrrolidin-2-yl) quinazolin-4 (3H)-one] | 151 to 500 | > 1000
COc1ccc(-n2c([C@@H]3CCCN3)nc3ccc(F)c(F)c3c2=O)cc1 [Example 30, (S)-5,6-difluoro-3-(4-methoxyphenyl)-2-(pyrrolidin-2-yl) quinazolin-4 (3H)-one] | > 1000 | > 1000
COc1ccc(-n2c([C@@H]3CCCN3C3CCOCC3)nc3ccc(F)c(F)c3c2=O)cc1 [Example 31, (S)-5,6-difluoro-3-(4-methoxyphenyl)-2-(1-(tetrahydro-2H-pyran-4-yl)pyrrolidin-2-yl) quinazolin-4 (3H)-one] | > 1000 | > 1000
COc1cccc(-n2c(C3CCCN3)nc3ccc([N+](=O)[O-])cc3c2=O)c1 (centres unmarked) [Example 32, 3-(3-methoxyphenyl)-6-nitro-2-(pyrrolidin-2-yl)quinazolin-4 (3H)-one] | > 1000 | > 1000
COc1ccc(-n2c([C@H]3CCCCN3)nc3ccc([N+](=O)[O-])cc3c2=O)cc1 [Example 33, (R)-3-(4-methoxyphenyl)-6-nitro-2-(piperidin-2-yl)quinazolin-4 (3H)-one] | 151 to 500 | 151 to 500

SMILES | EC50 (VEEV TC83) [nM] | EC50 (WEEV California) [nM]
COc1ccc(-n2c([C@H]3CCCN3)nc3cc(F)c(C#N)cc3c2=O)cc1 [Example 34, (R)-7-fluoro-3-(4-methoxyphenyl)-4-oxo-2-(pyrrolidin-2-yl)-3,4-dihydroquinazoline-6-carbonitrile] | 51 to 150 | 51 to 150
Cc1ccccc1-n1c([C@H]2CCCN2)nc2ccc([N+](=O)[O-])cc2c1=O [Example 35, (R)-6-nitro-2-(pyrrolidin-2-yl)-3-(o-tolyl)quinazolin-4 (3H)-one] | > 1000 | > 1000
Cc1cccc(-n2c([C@H]3CCCN3)nc3ccc([N+](=O)[O-])cc3c2=O)c1 [Example 36, (R)-6-nitro-2-(pyrrolidin-2-yl)-3-(m-tolyl)quinazolin-4 (3H)-one] | 51 to 150 | 501 to 1000
Cc1ccc(-n2c([C@H]3CCCN3)nc3ccc([N+](=O)[O-])cc3c2=O)cc1 [Example 37, (R)-6-nitro-2-(pyrrolidin-2-yl)-3-(p-tolyl)quinazolin-4 (3H)-one] | 1 to 50 | 501 to 1000
O=c1c2cc([N+](=O)[O-])ccc2nc(C2CCCN2)n1-c1ccccc1Cl (centres unmarked) [Example 38, 3-(2-chlorophenyl)-6-nitro-2-(pyrrolidin-2-yl) quinazolin-4 (3H)-one] | > 1000 | > 1000
O=c1c2cc([N+](=O)[O-])ccc2nc(C2CCCN2)n1-c1cccc(Cl)c1 (centres unmarked) [Example 39, 3-(3-chlorophenyl)-6-nitro-2-(pyrrolidin-2-yl) quinazolin-4 (3H)-one] | 51 to 150 | > 1000
O=c1c2cc([N+](=O)[O-])ccc2nc(C2CCCN2)n1-c1cccc(F)c1 (centres unmarked) [Example 40, 3-(3-fluorophenyl)-6-nitro-2-(pyrrolidin-2-yl)quinazolin-4 (3H)-one] | 1 to 50 | 501 to 1000
O=c1c2cc([N+](=O)[O-])ccc2nc(C2CCCN2)n1-c1ccccc1F (centres unmarked) [Example 41, 3-(2-fluorophenyl)-6-nitro-2-(pyrrolidin-2-yl)quinazolin-4 (3H)-one] | 501 to 1000 | > 1000
O=c1c2cc([N+](=O)[O-])ccc2nc(C2CCCN2)n1-c1ccc(F)cc1 (centres unmarked) [Example 42, 3-(4-fluorophenyl)-6-nitro-2-(pyrrolidin-2-yl)quinazolin-4 (3H)-one] | 51 to 150 | 151 to 500
COc1ccc(-n2c([C@H]3CCCN3)nc3cc(C)c([N+](=O)[O-])cc3c2=O)cc1 [Example 43, (R)-3-(4-methoxyphenyl)-7-methyl-6-nitro-2-(pyrrolidin-2-yl) quinazolin-4 (3H)-one] | 1 to 50 | 1 to 50
O=c1c2cc([N+](=O)[O-])ccc2nc([C@H]2CCCN2)n1-c1ccc(OC(F)(F)F)cc1 [Example 44, (R)-6-nitro-2-(pyrrolidin-2-yl)-3-(4-(trifluoromethoxy)phenyl)quinazolin-4 (3H)-one] | > 1000 | > 1000
O=c1c2cc([N+](=O)[O-])ccc2nc([C@H]2CCCN2)n1-c1cccc(OC(F)(F)F)c1 [Example 45, (R)-6-nitro-2-(pyrrolidin-2-yl)-3-(3-(trifluoromethoxy)phenyl)quinazolin-4 (3H)-one] | > 1000 | > 1000
O=c1c2cc([N+](=O)[O-])ccc2nc([C@@H]2CCCN2)n1-c1ccc(OC(F)(F)F)cc1 [Example 46, (S)-6-nitro-2-(pyrrolidin-2-yl)-3-(4-(trifluoromethoxy)phenyl)quinazolin-4 (3H)-one] | > 1000 | > 1000
COc1ccc(-n2c([C@H]3CCCN3)nc3c([N+](=O)[O-])cccc3c2=O)cc1 [Example 47, (R)-3-(4-methoxyphenyl)-8-nitro-2-(pyrrolidin-2-yl)quinazolin-4 (3H)-one] | > 1000 | > 1000
COc1ccc(-n2c([C@H]3CCCN3)nc3cc([N+](=O)[O-])ccc3c2=O)cc1 [Example 48, (R)-3-(4-methoxyphenyl)-7-nitro-2-(pyrrolidin-2-yl)quinazolin-4 (3H)-one] | > 1000 | > 1000
COc1ccc(-n2c([C@H]3CCCN3)nc3cccc([N+](=O)[O-])c3c2=O)cc1 [Example 49, (R)-3-(4-methoxyphenyl)-5-nitro-2-(pyrrolidin-2-yl)quinazolin-4 (3H)-one] | > 1000 | > 1000
COc1ccc(-n2c([C@H]3CCCN3)nc3c(C)cc(C#N)cc3c2=O)cc1 [Example 50, (R)-3-(4-methoxyphenyl)-8-methyl-4-oxo-2-(pyrrolidin-2-yl)-3,4-dihydroquinazoline-6-carbonitrile] | 1 to 50 | 1 to 50
COc1ccc(-n2c([C@@H]3CCCN3)nc3c(C)cc(C#N)cc3c2=O)cc1 [Example 51, (S)-3-(4-methoxyphenyl)-8-methyl-4-oxo-2-(pyrrolidin-2-yl)-3,4-dihydroquinazoline-6-carbonitrile] | 151 to 500 | 501 to 1000
